Test results as given in ChEMBL document CHEMBL1122042, “Chemical synthesis and molecular pharmacology of hydroxylated 1-(1-phenylcyclohexyl-piperidine derivatives” (1982).

species on record: Mus musculus; experiment: Effective dose for inhibition of phencyclidine binding measured in mouse rotarod assay; type: functional

| SMILES | ED50 |
| --- | --- |
| Oc1cccc(C2(N3CCCCC3)CCCCC2)c1 | 2.2 mg/kg |
| OC1CCCC(c2ccccc2)(N2CCCCC2)C1 (stereo unspecified) | 49.9 mg/kg |
| Oc1ccc(C2(N3CCCCC3)CCCCC2)cc1 | 28 mg/kg |
| OC1CCN(C2(c3ccccc3)CCCCC2)CC1 | 42 mg/kg |
| Oc1ccccc1C1(N2CCCCC2)CCCCC1 | 18 mg/kg |
| c1ccc(C2(N3CCCCC3)CCCCC2)cc1 [PHENCYCLIDINE] | 4 mg/kg |
